Values after ≈ are worked out from the molar mass of the structure shown.
Assays:
most fungi = conditions: general background statement; cited from earlier work
Fusarium oxysporum f.sp = assay: Minimal inhibitory concentration on agar plates containing natamycin (agar diffusion method); type: cell-based, Fusarium oxysporum f. sp. cubense; conditions: spores grown on agar plates with different natamycin concentrations, no visible growth
Method: (§1) The minimal inhibition concentration of these moulds or the minimal effective amount of the antifungal compound was determined using the agar diffusion method, which is well known in the art. Mould spores were grown on agar plates containing different concentrations of natamycin. The concentration of natamycin on which no visible growth could be observed was considered as the minimal inhibitory concentration (MIC) for that particular mould strain.

M. fijensis = assay: as above; type: cell-based, Mycosphaerella fijiensis; conditions: Pseudocercospora fijiensis; spores grown on agar plates with different natamycin concentrations; no visible growth
Method: as §1

[1] = cited from earlier work

For `C[C@@H]1C/C=C/C=C/C=C/C=C/[C@H](O[C@@H]2O[C@H](C)[C@@H](O)[C@H](N)[C@@H]2O)C[C@@H]2O[C@](O)(C[C@@H](O)C[C@H]3O[C@@H]3/C=C/C(=O)O1)C[C@H](O)[C@H]2C(=O)O` [natamycin], the “MIC (Minimal Inhibition Concentration) of most fungi” value (most fungi) is listed as “less than 20 ppm”, the MIC (Fusarium oxysporum f.sp) is listed as 3 to 7 µg/mL (≈ 4.51 to 10.5 µM) and the MIC (M. fijensis) is listed as 3 to 7 µg/mL (≈ 4.51 to 10.5 µM). For the same molecule, the solubility in water [1] was 30-50 ppm.

Source: patent US20070123476A1, “Polyene antibiotic for controlling fungal growth in banana crops” (priority 2004, published 2007)
